{"source": "patent US9101613B2", "about": "“Methods for treating neurological disease” (Neurim Pharmaceuticals (1991) Ltd., priority 2006, dated 2015)", "key": {"5-HT2A receptor": {"target": "T1, 5-HT2A receptor (Homo sapiens, UniProt P28223)", "T1 construct": "expressed in transfected cells; host or cells: CHO-K1", "T1 sequence (P28223 whole entry)": "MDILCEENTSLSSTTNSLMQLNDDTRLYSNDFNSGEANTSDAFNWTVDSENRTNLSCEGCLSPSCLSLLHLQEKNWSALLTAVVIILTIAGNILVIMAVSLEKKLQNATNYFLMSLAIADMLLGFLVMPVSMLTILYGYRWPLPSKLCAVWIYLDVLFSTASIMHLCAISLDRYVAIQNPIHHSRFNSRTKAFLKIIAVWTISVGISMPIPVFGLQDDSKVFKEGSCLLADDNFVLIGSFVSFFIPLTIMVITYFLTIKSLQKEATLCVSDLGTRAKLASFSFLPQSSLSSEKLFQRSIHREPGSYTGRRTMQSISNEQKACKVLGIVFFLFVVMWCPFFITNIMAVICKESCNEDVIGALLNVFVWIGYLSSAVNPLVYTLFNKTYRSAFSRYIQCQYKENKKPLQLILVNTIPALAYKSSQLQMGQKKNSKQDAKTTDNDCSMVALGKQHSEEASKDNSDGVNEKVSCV", "assay": "Serotonin receptor binding, [3H] Ketanserin, CHO-K1 membranes", "experimental": "(§1) Aliquots of suspended membranes of human recombinant CHO-K1 cells stably expressing human 5-HT1A, 5-HT2A, 5-HT1B, 5-HT2B, 5-HT2C, 5-HT4, 5-HT6 or 5-HT7 receptors were pre-incubated at 25° C. with 1.5 nM [^3H] 8-OH-DPAT (5-HT1A), 1.5 nM [^3H] Ketanserin (5-HT2A), 0.01 nM [^125I] Cyanopindolol (5-HT1B), 1 nM [^3H] Mesulergine (5-HT2c), 0.7 nM [^3H] GR-113808 (5-HT4) or at 37° C. 1.2 nM [^3H] LSD (5-HT2B, 5-HT6 and 5-HT7) in buffer (50 mM Tris-HCl, pH 7.7) alone or in the presence of 1 nM, 10 nM, 0.1 μM, 1 μM, and 10 μM of N-[2-(5-methoxy-indol-3-yl)-ethyl]-commenamide, N-[2-(5-methoxy-indol-3-yl)-ethyl]-coumalylamide, N-[2-(5-methoxy-indol-3-yl)-ethyl]-comanilamide, N-[2-(5-methoxy-indol-3-yl)-ethyl]-2-methoxy-commenamide or N-[2-(5-methoxy-indol-3-yl)-ethyl]-chelidonamide for 60 minutes. The binding reaction was terminated and washed with 4 ml ice-cold 50 mM Tris-HCl buffer by vacuum filtration. Membranes were then collected, and the filters containing the bound ligands were assayed for the amount of radioactivity in a b-counter. Non-specific binding was evaluated using a reaction with 10 μM metergoline (5-HT1A), 1 μM mianserin (5-HT2A and 5-HT2c) or 10 μM serotonin (5-HT1B, 5-HT2B, 5-HT4, 5-HT6 and 5-HT7)."}, "5-HT2C receptor": {"target": "T2, 5-HT2C receptor (Homo sapiens, UniProt P28335)", "T2 construct": "expressed in transfected cells; host or cells: CHO-K1", "T2 sequence (P28335 33-458)": "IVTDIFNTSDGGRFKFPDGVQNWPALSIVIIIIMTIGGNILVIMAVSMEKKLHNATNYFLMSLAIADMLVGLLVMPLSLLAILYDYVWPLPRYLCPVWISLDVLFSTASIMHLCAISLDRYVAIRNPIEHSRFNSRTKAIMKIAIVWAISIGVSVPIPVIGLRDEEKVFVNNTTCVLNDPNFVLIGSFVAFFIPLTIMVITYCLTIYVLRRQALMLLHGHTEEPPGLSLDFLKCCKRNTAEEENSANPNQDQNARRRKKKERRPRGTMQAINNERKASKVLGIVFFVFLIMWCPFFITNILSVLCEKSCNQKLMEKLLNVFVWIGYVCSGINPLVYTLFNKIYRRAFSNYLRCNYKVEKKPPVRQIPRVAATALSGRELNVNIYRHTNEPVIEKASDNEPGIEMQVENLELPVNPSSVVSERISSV", "assay": "Serotonin receptor binding, [3H] Mesulergine, CHO-K1 membranes", "experimental": "as §1"}, "mice": {"system": "mice", "assay": "Rotarod assay, interaction with diazepam", "type": "in vivo", "settings": "for Incidence of performance (rotarod): 15 rpm; for effect on rotarod performance: compound alone i.p., 15 rpm rotation speed", "experimental": "The incidences of animals running more than […] on the rotating rod were noted, and significances were calculated by non-parametric x^2 test. 8 mice/group were used.\nThe rotarod apparatus is divided into five test zones, so that up to five mice may be tested at the same time. The rod has been specially machined to provide a suitable grip for the animal. The diameter of the rod is 3.5 cm. The rotation speed was 15 rpm. When the animal falls off the rotating rod, it presses a button to record automatically the time spent on the rod. On the day before the experiment the mice were trained to run on the rod rotating with 15 rpm. Diazepam was administered orally 60 min before the rotarod assay, test substances were administered intraperitoneally 15 min before testing."}, "[1]": {"system": "rat primary cortical neurons", "assay": "Neurite outgrowth in rat primary cortical neurons", "type": "cell-based", "experimental": "The aim of this study was to assess the potential effect of N-[2-(5-methoxy-indol-3-yl)-ethyl]-comanilamide (100 nM) after 5 days of culture on neurite outgrowth in rat primary cortical neurons. The study used three separate cultures (n=6 wells per condition); the mean value of the 3 cultures (+/−sem) was calculated.\nRat cortical neurons were cultured as described by Singer et al., 1999. Briefly pregnant female rats of 15 days gestation are killed by cervical dislocation (Rats Wistar; Janvier) and the fetuses removed from the uterus. The cortex are removed and placed in ice-cold medium of Leibovitz (L15; Invitrogen) containing 1% of Penicillin-Streptomycin (PS; Invitrogen) and 1% of bovine serum albumin (BSA; Sigma). Cortex are dissociated by trypsinisation for 20 min at 37° C. (Trypsin EDTA 1×; Invitrogen) diluted in PBS without calcium and magnesium. The reaction is stopped by the addition of Dulbecco's modified Eagle's medium (DMEM; Invitrogen) containing DNAase I grade II (0.1 mg/ml; Roche Diagnostic) and 10% of fetal calf serum (FCS; Invitrogen). Cells are then mechanically dissociated by 3 passages through a 10 ml pipette. Cells are then centrifuged at 180×g for 10 min at 10° C. The supernatant is discarded and the cells of pellet are re-suspended in a defined culture medium consisting of Neurobasal (Invitrogen) supplemented with B27 (2%; Invitrogen), L-glutamine (0.2 mM; Invitrogen) and 1% of PS solution with 10 ng/ml of Brain-derived neurotrophic factor (BDNF).\nFor the neurite outgrowth assay, the cells are seed with test compound A (at 100 nM) and reference compound (BDNF at 10 ng/ml used as reference control) on defined medium (Neurobasal supplemented with 2% of B27, 0.2 mM of L-glutamine and 1% of PS).\nThe cultures were done (a) without BDNF in order to analyse the neurotrophic effect of compounds alone and (b) with low BDNF concentration (0.5 ng/ml) in order to analyse the synergic neurotrophic effect of N-[2-(5-methoxy-indol-3-yl)-ethyl]-comanilamide with the growth factor.\nAfter 5 days of culture in presence of N-[2-(5-methoxy-indol-3-yl)-ethyl]-comanilamide and reference, cells were fixed by a cool solution of ethanol (95%) and acetic acid (5%) for 10 min. After permeabilization with 0.1% of saponin, cells were incubated with monoclonal antibody anti microtubule associated protein 2 (MAP-2; Sigma). This antibody stains specifically cell bodies and neurite of neurons. […] Nuclei of neurons were labeled by a fluorescent marker (Hoechst solution, SIGMA). Per well, 20 pictures were taken using InCell Analyzer™ 1000 (GE Healthcare) with 20× magnification. All images were done in the same conditions. Analysis of the neuritis networks and neuron were assessed using Developer software (GE Healthcare). […]"}, "[2]": {"settings": "Diazepam 1.5 mg/kg p.o. + compound 5 mg/kg i.p."}, "[3]": {"settings": "Diazepam 1.5 mg/kg p.o. + compound 20 mg/kg i.p."}, "[4]": {"settings": "Diazepam 1.5 mg/kg p.o. + compound 50 mg/kg i.p."}, "[5]": {"settings": "Vehicle p.o. + compound 5 mg/kg i.p."}, "[6]": {"settings": "Vehicle p.o. + compound 20 mg/kg i.p."}, "[7]": {"settings": "Vehicle p.o. + compound 50 mg/kg i.p."}}, "note": "Like-named read-outs stand apart in the source and are kept apart here. Marks after values point to notes of the source that are not given here.", "data": [{"smiles": "COc1ccc2[nH]cc(CCNC(=O)c3cc(=O)cc(C(=O)O)o3)c2c1", "note": "[N-[2-5-methoxy-indol-3-yl)-ethyl]-chelidonamide]", "values": [{"measurement": "IC50", "setting": "5-HT2A receptor", "result": 7.5, "unit": "µM"}, {"measurement": "Ki", "setting": "5-HT2A receptor", "result": 2.14, "unit": "µM"}, {"measurement": "IC50", "setting": "5-HT2C receptor; read-out: 5-HT2C IC50", "result": 11.2, "unit": "µM"}, {"measurement": "Ki", "setting": "5-HT2C receptor; read-out: 5-HT2C KI", "result": 5.8, "unit": "µM"}]}, {"smiles": "COc1ccc2[nH]cc(CCNC(=O)c3cc(=O)cco3)c2c1", "note": "[N-[2-(5-methoxy-indol-3-yl)-ethyl]-comanilamide]", "values": [{"measurement": "Incidence of performance (rotarod)", "setting": "mice; [2]", "result": "4/8*"}, {"measurement": "Incidence of performance (rotarod)", "setting": "mice; [3]", "result": "2/8***"}, {"measurement": "Incidence of performance (rotarod)", "setting": "mice; [4]", "result": "1/8***"}, {"measurement": "Incidence of performance (rotarod)", "setting": "mice; [5]", "result": "6/8"}, {"measurement": "Incidence of performance (rotarod)", "setting": "mice; [6]", "result": "5/8"}, {"measurement": "Incidence of performance (rotarod)", "setting": "mice; [7]", "result": "5/8"}, {"measurement": "effect on rotarod performance", "setting": "mice", "result": "dose dependently impaired the performance"}, {"measurement": "neurotrophic effect, compound alone", "setting": "[1]; 100 nM alone in the culture medium, without BDNF", "result": "no neurotrophic effect"}, {"measurement": "activity at 0.1 µM", "setting": "[1]; Rattus norvegicus, Primary cortical neuron, 120 h, 100 nM + BDNF 0.5 ng/ml, 5 days of culture, read-out: neurite length, % of control", "result": "~145", "unit": "%"}]}, {"smiles": "COc1ccc2[nH]cc(CCNC(=O)c3cc(=O)c(O)co3)c2c1", "note": "[N-[2-(5-methoxy-indol-3-yl)-ethyl]-commenamide]", "values": [{"measurement": "Incidence of performance (rotarod)", "setting": "mice; [2]", "result": "5/8"}, {"measurement": "Incidence of performance (rotarod)", "setting": "mice; [3]", "result": "3/8**"}, {"measurement": "Incidence of performance (rotarod)", "setting": "mice; [4]", "result": "1/8***"}, {"measurement": "Incidence of performance (rotarod)", "setting": "mice; [5]", "result": "8/8"}, {"measurement": "Incidence of performance (rotarod)", "setting": "mice; [6]", "result": "5/8"}, {"measurement": "Incidence of performance (rotarod)", "setting": "mice; [7]", "result": "5/8"}, {"measurement": "effect on rotarod performance", "setting": "mice", "result": "dose dependently impaired the performance"}, {"measurement": "IC50", "setting": "5-HT2C receptor", "result": 7.2, "unit": "µM"}, {"measurement": "Ki", "setting": "5-HT2C receptor", "result": 3.8, "unit": "µM"}]}]}
